# Measurements: US20100081632A1, “High-content and high throughput assays for identification of lipid-regulating pathways, and novel therapeutic agents for lipid disorders” (Odyssey Thera, Inc., priority 2008, published 2010)
# B1: Oncostatin M (OSM): regulator of hepatic LDL uptake, purported target Gp130/OSMR/LIFR (protein, UniProt P13725 26-221, looked up)
# Oncostatin-M: AAIGSCSKEYRVLLGQLQKQTDLMQDTSRLLDPYIRIQGLDVPKLREHCRERPGAFPSEETLRGLGRRGFLQTLNATLGCVLHRLADLEQRLPKAQDLERSGLNIEDLEKLQMARPNILGLRNNIYCMAQLLDNSDTAEPTKAGRGASQPPTPTPASDAFQRKLEGCRFLHGYHRFMHSVGRVFSKWGESPNRSRR
# Tests used:
# [1] = system: PCSK9/LDLR complex; experiment: PCSK9/LDLR protein complementation assay (PCA) in transfected HEK293 cells; format: cell-based, human
# Description: In one of the embodiments of the invention, the cell-based assay consists of transfected cDNAs encoding full-length PCSK9 and LDL receptor, each sequence linked in-frame to rationally designed fragments of a variant of green fluorescent protein. These two plasmid constructs were co-expressed in human HEK cells plated in 384-well poly-lysine coated plates. After 24-48 hours of incubation, drugs (or vehicle controls) were added to the media, and the existence and localization of PCSK9/LDL receptor complexes was quantified on an Opera automated confocal fluorescence microscopy platform (Perkin Elmer). Images were subjected to automated image analysis, and results quantified and subjected to statistical analysis.
# HEK 293T cells were seeded in normal growth media containing DMEM and 10% FBS at 1.5×10^4 in PDL-coated 96-well plates 24 hours prior to transfection. Cells were transfected with 50 ng of each construct DNA per well with Fugene 6, using conditions recommended by the manufacturer. Cells were allowed to express the construct pairs for 24- or 48 h, then the cells were simultaneously fixed and stained with either a 1:300 dilution of Hoescht 33342 (Molecular Probes, Eugene, Oreg.) or a 1:1000 dilution of Draq5 (Biostatus, Shepshed, Leicestershire, U.K.) in 4% formaldehyde for 15 minutes at room temperature. The cells were washed to remove fixative, and overlaid with a small volume of Hank's Buffered Salt Solution. Images were acquired on a Discovery-1 (Molecular Devices) epifluorescence microscope using the 20× objective, and DAPI and FITC filter sets. (with excitation at 350 and 488 nm wave lengths) or on an Opera (Perkin Elmer) confocal microscope using the 20× water objective with the following excitation and emission settings: Ex 488 nm/Em 535 nm (YFP) and Ex 635 nm/Em 640 nm (Draq5).
# To test for in vitro PCSK9 function and activity, we developed a protein complementation assay (PCA) with PCSK9-IFP2 and the LDL-IFP1 receptor (PCSK9/LDLR). Expression of wild type PCSK9-IFP2 in transfected HEK293 cells was confirmed by Western blot using an antibody against YFP (FIG. 2). Cotranfection of HEK cells with increasing ratios of PCSK9-IFP2 and LDLR-IFP1 DNA constructs results in increased PCA signal (FIG. 3) but not when each construct is expressed alone. The intracellular localization of the wild-type PCSK9-IFP2/LDLR-IFP1 PCA interaction is similar to the known localization of wild type PCSK9 in the endoplasmic reticulum (ER) and post-ER compartments in various cell types (20, 21). The PCA signal for the PCSK9-IFP2/LDLR-IFP1 pair appears to be localized to multiple intracellular trafficking sites including the ER, endosomes and the cell surface.
# In order to test the viability of using the PCSK9-IFP2/LDLR-IFP1 PCA as a drug discovery tool, we tested a drug plate containing 50 known drugs at 3 doses in the assay (Table 10) as well as several protein kinase inhibitors (representative compounds are depicted in Table 11). […] We observed the following effects of known compounds on the PCSK9/LDLR complex:
# A collection of small molecular weight compounds was screened. […] To expand on this observation, we characterized the effects of a larger panel of kinase inhibitors on the PCSK9/LDLr complex. 47 compounds representing a broad range of known receptor tyrosine and serine-threonine kinase inhibitors were assessed (table 2). A subset was identified that had inhibitory effects on the PCSK9/LDLr complex (degree of assay inhibition relative to control is indicated by “% control”, Table 2).
# [2] = system: HepG2 cells; experiment: LDL uptake in HepG2 cells (human LDL conjugated to DyLight 549); format: cell-based; conditions: for x-fold increase (hepatic LDL uptake): HepG2
# Source text: The assay uses human LDL conjugated to DyLight™ 549 as a fluorescent probe for detection of LDL uptake into HepG2 cells.
# We assessED whether compounds that inhibit the PCSK9/LDLr assay would have activity on LDL uptake and metabolism in a relevant cell type. PCSK9 is thought to be a negative regulator of LDLr. Thus, we predicted that compounds inhibiting the PCSK9 PCA signal would increase LDL receptor expression and LDL uptake. An assay using human LDL conjugated to DyLight™ 549 as a fluorescent probe for detection of LDL uptake into cultured human hepatocytes. A separate assay, using an LDL receptor-specific polyclonal antibody and a DyLight™ 488-conjugated secondary antibody, was also performed to localize LDL receptors
# Quantitation of the increased LDL uptake of these and other kinase inhibitors targeting Akt, mTOR, p38, GSK3 and VEGF is shown in Table 4.
molecule,measurement,setting,value
COc1ccnc(C[S+]([O-])c2nc3ccc(OC(F)F)cc3[nH]2)c1OC (centres unmarked) [Pantoprazole],% Control (PCSK9/LDLr PCA),[1]; dose 200 μM,36%
"CCN(CC)CCCCN1c2ccccc2Oc2ccc(Cl)cc21.Cl [Akt Inhibitor X, 10-(4′-(N-diethylamino)butyl)-2-chlorophenoxazine, HCl]",x-fold increase (LDL uptake in Hepg2 cells),[2]; dose 1 μM,1.4 x-fold
same,x-fold increase (hepatic LDL uptake),[2]; dose 1 µM,1.4 x-fold
same,x-fold increase (LDL uptake in Hepg2 cells),[2]; dose 3 μM,1.7 x-fold
same,x-fold increase (hepatic LDL uptake),[2]; dose 3 µM,1.7 x-fold
Oc1ccc(-c2nc(-c3ccc(F)cc3)c(-c3ccncc3)[nH]2)cc1 [SB 202190],x-fold increase (LDL uptake in Hepg2 cells),[2]; dose 1 μM,2.7 x-fold
same,x-fold increase (hepatic LDL uptake),[2]; dose 1 µM,2.7 x-fold
COc1cc2ncnc(Nc3cccc(Br)c3)c2cc1OC [PD-153035],x-fold increase (LDL uptake in Hepg2 cells),[2]; dose 0.2 μM,1.3 x-fold
same,x-fold increase (hepatic LDL uptake),[2]; dose 0.2 µM,1.3 x-fold
CO[C@H]1C[C@@H]2CC[C@@H](C)[C@@](O)(O2)C(=O)C(=O)N2CCCC[C@H]2C(=O)O[C@H]([C@H](C)C[C@@H]2CC[C@H](n3cnnn3)[C@H](OC)C2)CC(=O)[C@H](C)/C=C(\C)[C@@H](O)[C@@H](OC)C(=O)[C@H](C)C[C@H](C)/C=C/C=C/C=C/1C [Zotarolimus],% Control (PCSK9/LDLr PCA),[1]; dose 10 μM,37%
"CC[n+]1c(/C=C/N(C)c2ccccc2)n(-c2ccccc2)c2ccc(-c3nc4ccccc4s3)cc21 [Akt Inhibitor IV, 5-(2-Benzothiazolyl)-3-ethyl-2-[2-(methylphenylamino)ethenyl]-1-phenyl-1H-benzimidazolium iodide]",% Control (PCSK9/LDLr PCA),[1]; dose 1 μM,65%
same,% Control (PCSK9/LDLr PCA),[1]; dose 3 μM,40%
same,% Control (PCSK9/LDLr PCA),[1]; dose 10 μM,56%
CN(C)CCCN1c2ccccc2CCc2ccccc21 [Imipramine],% Control (PCSK9/LDLr PCA),[1]; dose 150 μM,46%
CNc1cc2c(Nc3cccc(Br)c3)ncnc2cn1 [PD-158780],x-fold increase (LDL uptake in Hepg2 cells),[2]; dose 0.3 μM,1.3 x-fold
same,x-fold increase (hepatic LDL uptake),[2]; dose 0.3 µM,1.3 x-fold
"Oc1cccc(-c2nc(N3CCOCC3)c3sccc3n2)c1 [PI 3-K alpha Inhibitor IV, 3-(4-Morpholinothieno[3,2-d]pyrimidin-2-yl)phenol]",% Control (PCSK9/LDLr PCA),[1]; dose 30 μM,46%
C=C1[C@@H](C)[C@H]2[C@H](Cc3ccccc3)NC(=O)[C@]23OC(=O)/C=C/[C@H](O)CCC[C@@H](C)C/C=C/[C@H]3[C@@H]1O [Cytochalasin B],% Control (PCSK9/LDLr PCA),[1]; dose 2 μM,53%
C=C1CC[C@@H]2[C@](C)(CO)CCC[C@@]2(C)[C@@H]1CCC1=CCOC1=O [Andrograpanin],% Control (PCSK9/LDLr PCA),[1]; dose 100 μM,40%
CCOC(=O)N1CCC(=C2c3ccc(Cl)cc3CCc3cccnc32)CC1 [Loratidine],% Control (PCSK9/LDLr PCA),[1]; dose 30 μM,59%
C[S+]([O-])c1ccc(-c2nc(-c3ccc(F)cc3)c(-c3ccncc3)[nH]2)cc1 (centres unmarked) [SB 203580],x-fold increase (LDL uptake in Hepg2 cells),[2]; dose 3 μM,3.0 x-fold
same,x-fold increase (hepatic LDL uptake),[2]; dose 3 µM,3.0 x-fold
CS(=O)(=O)CCNCc1ccc(-c2ccc3ncnc(Nc4ccc(OCc5cccc(F)c5)c(Cl)c4)c3c2)o1 [Lapatinib],effect on LDL uptake (in words),"[2]; HepG2, 10 μM",dramatic increase in LDL uptake
same,x-fold increase (LDL uptake in Hepg2 cells),[2]; dose 10 μM,1.8 x-fold
same,x-fold increase (hepatic LDL uptake),[2]; dose 10 µM,1.8 x-fold
same,x-fold increase (LDL uptake in Hepg2 cells),[2]; dose 30 μM,1.9 x-fold
same,x-fold increase (hepatic LDL uptake),[2]; dose 30 µM,1.9 x-fold
O=C1NC(=O)C(c2ccccc2[N+](=O)[O-])=C1Nc1ccc(O)c(Cl)c1 [SB 415286],x-fold increase (LDL uptake in Hepg2 cells),[2]; dose 25 μM,1.6 x-fold
same,x-fold increase (hepatic LDL uptake),[2]; dose 25 µM,1.6 x-fold
COc1cc2ncnc(Nc3ccc(F)c(Cl)c3)c2cc1OCCCN1CCOCC1 [Gefitinib],% Control (PCSK9/LDLr PCA),[1]; dose 100 μM,53%
CC[C@H](CO)Nc1nc(NCc2ccccc2)c2ncn(C(C)C)c2n1 [Roscovitine],% Control (PCSK9/LDLr PCA),[1]; dose 40 μM,54%
Cc1c(OCC(F)(F)F)ccnc1C[S+]([O-])c1nc2ccccc2[nH]1 (centres unmarked) [Lanzoprazole],effect on formation of PCSK9/LDLR complexes / PCA signal (in words),[1],inhibit the formation of PCSK9/LDLR complexes
same,% Control (PCSK9/LDLr PCA),[1]; dose 100 μM,53%
CC/C(=C(\c1ccccc1)c1ccc(OCCN(C)C)cc1)c1ccccc1 [Tamoxifen],% Control (PCSK9/LDLr PCA),[1]; dose 30 μM,53%
CN[C@@H]1C[C@H]2O[C@@](C)([C@@H]1OC)n1c3ccccc3c3c4c(c5c6ccccc6n2c5c31)C(=O)NC4 [Staurosporine],% Control (PCSK9/LDLr PCA),[1]; dose 1 μM,34%
O=c1cc(N2CCNCC2)oc2c(-c3ccccc3)cccc12 [LY 303511],x-fold increase (LDL uptake in Hepg2 cells),[2]; dose 3 μM,1.4 x-fold
same,x-fold increase (LDL uptake in Hepg2 cells),[2]; dose 30 μM,2.1 x-fold
same,x-fold increase (hepatic LDL uptake),[2]; dose 30 µM,2.1 x-fold
same,x-fold increase (hepatic LDL uptake),[2]; dose 3 µM,1.4 x-fold
CN(C)CCC=C1c2ccccc2CCc2ccccc21 [Amitryptyline],% Control (PCSK9/LDLr PCA),[1]; dose 100 μM,48%
C=C1CC[C@@H]2[C@](C)(CO)[C@H](O)CC[C@@]2(C)[C@@H]1C/C=C1/C(=O)OC[C@H]1O [Andrographolide],% Control (PCSK9/LDLr PCA),[1]; dose 100 μM,43%
"O=C1NC(=O)C(=Cc2ccc(-c3ccc(F)cc3O)o2)S1 [PI3K gamma/CKII inhibitor, (5-(4-Fluoro-2-hydroxyphenyl)furan-2-ylmethylene)thiazolidine-2,4-dione]",% Control (PCSK9/LDLr PCA),[1]; dose 3 μM,57%
same,% Control (PCSK9/LDLr PCA),[1]; dose 10 μM,47%
CN(C)CCCN1c2ccccc2CCc2ccc(Cl)cc21 [Clomipramine],% Control (PCSK9/LDLr PCA),[1]; dose 50 μM,46%
CN[C@H]1CC[C@@H](c2ccc(Cl)c(Cl)c2)c2ccccc21 [Sertraline],% Control (PCSK9/LDLr PCA),[1]; dose 100 μM,46%
O=C1C(SCCO)=C(SCCO)C(=O)N1c1ccc(-c2ccccc2)cc1 [PM20],% Control (PCSK9/LDLr PCA),[1]; dose 10 μM,53%
O=NN(CCCl)C(=O)NC1CCCCC1 [Lomustine],% Control (PCSK9/LDLr PCA),[1]; dose 50 μM,50%
same,% Control (PCSK9/LDLr PCA),[1]; dose 150 μM,54%
CCc1cc(-c2oncc2-c2ccc(OC)cc2)c(O)cc1OC [KRIBB3],x-fold increase (LDL uptake in Hepg2 cells),[2]; dose 1 μM,1.3 x-fold
same,x-fold increase (hepatic LDL uptake),[2]; dose 1 µM,1.3 x-fold
same,x-fold increase (LDL uptake in Hepg2 cells),[2]; dose 3 μM,1.6 x-fold
same,x-fold increase (hepatic LDL uptake),[2]; dose 3 µM,1.6 x-fold
B1,x-fold increase (hepatic LDL uptake),[2]; dose 30 ng/ml,4.2 x-fold
